Article PMC8514817, “De Novo Design of Antimicrobial Peptides With a Special Charge Pattern and Their Application in Combating Plant Pathogens” (Frontiers in Plant Science, 2021)
Where a SMILES comes first, the peptide text is derived from it. The star is where a group is joined. Myristoyl = CCCCCCCCCCCCCC(=O)*

How the values were obtained:
Pcc [1] = settings: 48 h
Ech = settings: 48 h
Pcc [2] = assay type: cell-based, Pectobacterium carotovorum subsp. carotovorum
Xcc Xcc17 = settings: Table 4, rich medium, up to 32 μg/ml; for MIC: 48 h, no visible growth; for MBC: spotted on rich agar 48 h, no colony
Atu C58C1 = settings: Table 4, rich medium, up to 32 μg/ml; for MIC: 48 h, no visible growth; for MBC: spotted on rich agar 48 h, no colony

## Ac-WKKIKKIIKKIKKI-NH2 [pepI2]
Pcc [1]
  MBC: 2 µg/mL
  MIC: 2 µg/mL
Ech
  MBC: 16 µg/mL
  MIC: 16 µg/mL

## Ac-WKKLKKLLKKLKKL-NH2 [pepD2]
Pcc [2]
  membranolytic effect (SYTOX Green staining): significant membranolytic effect
Xcc Xcc17
  MIC: 1 µg/mL
  MBC: 1 µg/mL
Atu C58C1
  MIC: 2 µg/mL
  MBC: 2 µg/mL
Pcc [1]
  MBC: 16 µg/mL

## Ac-WKKLKKLLKKL-NH2 [pepD3]
Pcc [2]
  membranolytic effect (SYTOX Green staining): significant membranolytic effect
Xcc Xcc17
  MIC: 2 µg/mL
  MBC: 2 µg/mL
Atu C58C1
  MIC: 2 µg/mL
  MBC: 2 µg/mL
Pcc [1]
  MBC: 16 µg/mL

## CCCCCCCCCCCCCC(=O)N[C@@H](Cc1c[nH]c2ccccc12)C(=O)N[C@@H](CCCCN)C(=O)N[C@@H](CCCCN)C(=O)N[C@@H](CC(C)C)C(=O)N[C@@H](CCCCN)C(=O)N[C@@H](CCCCN)C(=O)N[C@@H](CC(C)C)C(=O)N[C@@H](CC(C)C)C(=O)N[C@@H](CCCCN)C(=O)N[C@@H](CCCCN)C(=O)N[C@@H](CC(C)C)C(=O)N[C@@H](CCCCN)C(=O)N[C@@H](CCCCN)C(=O)N[C@@H](CC(C)C)C(N)=O [pepD2M] (Myristoyl-WKKLKKLLKKLKKL-NH2)
Pcc [2]
  membranolytic effect (SYTOX Green staining): significant membranolytic effect
